Test results from patent publication US8012943B2, “Antibacterial agents” (Optimer Pharmaceuticals, Inc., priority 2003, dated 2011).
Values after ≈ are worked out from the molar mass of the structure shown. Read-outs that look alike come from different tables or passages of the source.

What was measured:
Assay in all cases: MIC, NCCLS broth microdilution
[1] = test system: S. pneumoniae 303(ErmB); format: cell-based, Streptococcus pneumoniae
Method: (§1) Antibacterial activity of the novel Formula 1 and Formula 2 compounds and their pharmaceutically acceptable addition salts with organic and inorganic acids was determined against a series of microorganisms from the American Type Culture Collection (ATCC) and clinical Streptococcus sp isolates. The ATCC strains included: Staphylococcus aureus, Enterococcus faecium, Klebsiella pneumoniae, Escherichia coli, Salmonella typhimurium, Streptococcus pneumoniae, Streptococcus pyogenes, and Haemophilus influenzae. The clinical strains included macrolide resistant Streptococcus sp. with either Erm or MefA resistance mechanisms. The clinical isolates were identified using the API biochemical identification system (BioMerieux).
(§2) Antimicrobial susceptibility testing was performed according to recommendations by the National Committee for Clinical Laboratory Standards (NCCLS M100-S12, M7-A5). Briefly, two fold dilutions of compounds were made in microtiter plates. Each well of the microtiter plate was inoculated with test microorganisms at a final density 5×10^5 colony forming units (cfu)/mL. The microtiter plates were incubated at 35° C. under aerobic conditions, except for H. influenzae and S. pyogenes which were incubated at 5% CO2. The minimal inhibitory concentration (MIC) was defined as the lowest concentration of compound that inhibited growth. The results of represented examples of this invention on standard test microorganisms and clinical isolates in comparison with azithromycin and telithromycin are shown in Table 1 and Table 2.

[2] = test system: S. pneumoniae 163(MefA); format: cell-based, Streptococcus pneumoniae
Method: as §1, §2

[3] = test system: S. pneumoniae ATCC 49619; format: cell-based, Streptococcus pneumoniae
Method: as §1, §2

[4] = test system: H. influenzae ATCC 49247; format: cell-based, Haemophilus influenzae; details: 5% CO2
Method: as §1, §2

[5] = test system: E. faecium ATCC 19434; format: cell-based; details: Enterococcus faecium, ATCC19434, Table 1
Method: as §1, §2

[6] = test system: S. pyogenes ATCC 19615; format: cell-based; details: Streptococcus pyogenes, ATCC19615, 5% CO2, Table 1
Method: as §1, §2

[7] = test system: S. aureus MRSA 33591; format: cell-based; details: Staphylococcus aureus, Table 1
Method: as §1, §2

[8] = test system: S. aureus ATCC 29213 (MSSA) MLS-S; format: cell-based; details: Staphylococcus aureus, Table 1
Method: as §1, §2

[9] = test system: E. Coli ATCC 25922; format: cell-based; details: Escherichia coli, ATCC25922, Table 1
Method: as §1, §2

[10] = test system: K. Pneumonia 13883; format: cell-based; details: Klebsiella pneumoniae, Table 1
Method: as §1, §2

[11] = test system: S. Typhimurium ATCC 14028; format: cell-based; details: Salmonella enterica, Table 1
Method: as §1
as §2, with “growth.” for “growth. The results of represented examples of this invention on standard test microorganisms and clinical isolates in comparison with azithromycin and telithromycin are shown in Table 1 and Table 2.”

[12] = test system: S. pneumoniae 3773 (Erm B); format: cell-based, Streptococcus pneumoniae
Method: as §1, §2

[13] = test system: S. pyogenes 1850; format: cell-based; details: Streptococcus pyogenes, Table 2
Method: as §1, §2

[14] = test system: S. pneumoniae 5032; format: cell-based; details: Streptococcus pneumoniae, Table 2
Method: as §1, §2

[15] = test system: S. pyogenes 1721; format: cell-based; details: Streptococcus pyogenes, Table 2
Method: as §1, §2

[16] = test system: S. pyogenes 3029; format: cell-based; details: Streptococcus pyogenes, Table 2
Method: as §1, §2

[17] = test system: S. pyogenes 3262; format: cell-based; details: Streptococcus pyogenes, Table 2
Method: as §1, §2

[18] = Streptococcus pneumoniae, S. pneumoniae 303(ErmB), Table 1, read-out: MIC
[19] = Streptococcus pneumoniae, S. pneumoniae 163(MefA), Table 1, read-out: MIC
[20] = Streptococcus pneumoniae, ATCC49619, Table 1, read-out: MIC
[21] = Haemophilus influenzae, ATCC49247, H. influenzae ATCC 49247, Table 1, read-out: MIC
[22] = Streptococcus pneumoniae, Table 2, read-out: MIC
[23] = Streptococcus pneumoniae, S. pneumoniae ErmB 303, Table 2, read-out: MIC
[24] = Streptococcus pneumoniae, S. pneumoniae 163 (Mef A), Table 2, read-out: MIC
[25] = Streptococcus pneumoniae, ATCC49619, Table 2, read-out: MIC
[26] = Haemophilus influenzae, ATCC49247, H. influenzae ATCC 49247, Table 2, read-out: MIC

Row | MIC [1, 18] | MIC [2, 19] | MIC [3, 20] | MIC [4, 21] | MIC [5] | MIC [6] | MIC [7] | MIC [8] | MIC [9] | MIC [10] | MIC [11] | MIC [12, 22] | MIC [1, 23] | MIC [2, 24] | MIC [4, 26] | MIC [13] | MIC [14] | MIC [15] | MIC [16] | MIC [17] | Compound | further results
1 | 0.5 µg/mL (≈ 0.668 µM) | ≤ 0.125 µg/mL | ≤ 0.125 µg/mL | 2 µg/mL (≈ 2.67 µM) | 4 µg/mL (≈ 5.34 µM) | 1 µg/mL (≈ 1.34 µM) | > 64 µg/mL | 1 µg/mL (≈ 1.34 µM) | 8 µg/mL (≈ 10.7 µM) | 8 µg/mL (≈ 10.7 µM) | 4 µg/mL (≈ 5.34 µM) |  |  |  |  |  |  |  |  |  | CC[C@H]1OC(=O)[C@H](C)[C@@H](O[C@H]2C[C@@](C)(OC)[C@@H](O)[C@H](C)O2)[C@H](C)[C@@H](O[C@@H]2O[C@H](C)C[C@H](N(C)C)[C@H]2O)[C@](C)(O)C[C@@H](C)CN(C)[C@H](C)[C@@H](O)[C@]1(C)O [Azithromycin, reference compound] | 
2 | > 64 µg/mL | ≤ 0.125 µg/mL | ≤ 0.125 µg/mL | 0.5 µg/mL (≈ 0.577 µM) | ≤ 0.125 µg/mL | ≤ 0.125 µg/mL | > 64 µg/mL | ≤ 0.125 µg/mL | 64 µg/mL (≈ 73.8 µM) | 32 µg/mL (≈ 36.9 µM) | 8 µg/mL (≈ 9.23 µM) |  |  |  |  |  |  |  |  |  | CC[C@H]1OC(=O)[C@H](C)C(=O)[C@H](C)[C@@H](OC2OC(C)CC(N(C)C)C2O)[C@@](C)(OC)C[C@@H](C)C(=O)[C@H](C)[C@H]2N(CCCCn3cc(Cn4nnc5ccccc54)nn3)C(=O)O[C@]12C (stereo partly drawn) [OP-1007, 11-N-[4-(4-Benzotriazol-1-ylmethyl-[1,2,3]triazol-1-yl)-butyl]-6-O-methyl-5-O-dasosaminyl-3-oxo-erythronolide A, 11,12-carbamate] | 
3 |  |  |  |  |  |  |  |  |  |  |  | 0.5 µg/mL (≈ 0.592 µM) | ≤ 0.125 µg/mL | ≤ 0.125 µg/mL | 2 µg/mL (≈ 2.37 µM) | ≤ 0.125 µg/mL | 0.5 µg/mL (≈ 0.592 µM) | 0.5 µg/mL (≈ 0.592 µM) | ≤ 0.125 µg/mL | 0.5 µg/mL (≈ 0.592 µM) | CC[C@H]1OC(=O)[C@@](C)(F)C(=O)[C@H](C)[C@@H](O[C@@H]2O[C@H](C)C[C@H](N(C)C)[C@H]2O)[C@](C)(OC)C[C@@H](C)C(=O)[C@H](C)[C@H]2N(CCCCn3cc(-c4cccc(N)c4)nn3)C(=O)O[C@]12C [OP-1068, 11-N-[4-[4-(3-aminophenyl)-[1,2,3]triazol-1-yl]-butyl]-5-desosaminyl-3-oxo-2-fluoro-erythronolide A, 11,12-cyclic carbamate] | MIC ([12]; Table 2): 1 µg/mL (≈ 1.18 µM); MIC [3, 25]: ≤ 0.125 µg/mL; MIC ([4]; H. influenzae ATCC 49247, Table 2): 4 µg/mL (≈ 4.73 µM)
4 | > 64 µg/mL | 0.5 µg/mL (≈ 0.566 µM) | ≤ 0.125 µg/mL | 2 µg/mL (≈ 2.26 µM) | ≤ 0.125 µg/mL | ≤ 0.125 µg/mL | > 64 µg/mL | 0.25 µg/mL (≈ 0.283 µM) | > 64 µg/mL | > 64 µg/mL | > 64 µg/mL |  |  |  |  |  |  |  |  |  | CC[C@H]1OC(=O)[C@H](C)C(=O)[C@H](C)[C@@H](OC2OC(C)C(O)C(N(C)C)C2O)[C@@](C)(OC)C[C@@H](C)C(=O)[C@H](C)[C@H]2N(CCCCn3cc(Cn4nnc5ccccc54)nn3)C(=O)O[C@]12C (stereo partly drawn) [OP-1071, 11-N-[4-(4-Benzotriazol-1-ylmethyl-[1,2,3]triazol-1-yl)-butyl]-6-O-methyl-5-mycaminosyl-3-oxo-erythronolide A, 11,12-carbamate] | 
5 | 0.25 µg/mL (≈ 0.283 µM) | ≤ 0.125 µg/mL |  | > 64 µg/mL | 4 µg/mL (≈ 4.53 µM) | 32 µg/mL (≈ 36.3 µM) | > 64 µg/mL | 4 µg/mL (≈ 4.53 µM) | > 64 µg/mL | > 64 µg/mL | > 64 µg/mL |  |  |  |  |  |  |  |  |  | CC[C@H]1OC(=O)[C@H](C)C(=O)[C@H](C)[C@@H](OC(=O)C2CN(C(=O)OC(C)(C)C)C(C)(C)O2)[C@@](C)(OC)C[C@@H](C)C(=O)[C@H](C)[C@H]2N(CCCCn3cnc(-c4cccnc4)c3)C(=O)O[C@]12C (stereo partly drawn) [OP-1086] | 
6 |  |  |  |  |  |  |  |  |  |  |  | 0.5 µg/mL (≈ 0.553 µM) | ≤ 0.125 µg/mL | ≤ 0.125 µg/mL | 1 µg/mL (≈ 1.11 µM) | 0.25 µg/mL (≈ 0.277 µM) | 1 µg/mL (≈ 1.11 µM) | 4 µg/mL (≈ 4.42 µM) | 1 µg/mL (≈ 1.11 µM) | 4 µg/mL (≈ 4.42 µM) | CC[C@H]1OC(=O)[C@@](C)(F)C(=O)[C@H](C)[C@@H](OC2OC(COC(C)=O)CC(N(C)C)C2O)[C@@](C)(OC)C[C@@H](C)C(=O)[C@H](C)[C@H]2N(CCCCn3cc(-c4cccc(N)n4)nn3)C(=O)O[C@]12C (stereo partly drawn) [OP-1356, 11-N-{4-[4-(6-Amino-pyridin-2-yl)-[1,2,3]triazol-1-yl]-butyl}-5-(3-dimethylamine-4-deoxy-6-O-acetyl-glucopyranosyl)-3-oxo-2-fluoro-erythronolide A,-11,12-cyclic carbamate] | MIC [3, 25]: ≤ 0.125 µg/mL
7 |  |  |  |  |  |  |  |  |  |  |  | 1 µg/mL (≈ 1.18 µM) | ≤ 0.125 µg/mL | ≤ 0.125 µg/mL | 4 µg/mL (≈ 4.73 µM) | 0.25 µg/mL (≈ 0.296 µM) | 1 µg/mL (≈ 1.18 µM) | 2 µg/mL (≈ 2.36 µM) | 1 µg/mL (≈ 1.18 µM) | 1 µg/mL (≈ 1.18 µM) | CC[C@H]1OC(=O)[C@@](C)(F)C(=O)[C@H](C)[C@@H](OC2OC(C)CC(N(C)C)C2O)[C@@](C)(OC)C[C@@H](C)C(=O)[C@H](C)[C@H]2N(CCCCn3cc(-c4cccc(N)n4)nn3)C(=O)O[C@]12C (stereo partly drawn) [OP-1357, 11-N-{4-[4-(6-Amino-pyridin-2-yl)-[1,2,3]triazol-1-yl]-butyl}-5-desosaminyl-3-oxo-2-fluoro-erythronolide A,-11,12-cyclic carbamate] | MIC [3, 25]: ≤ 0.125 µg/mL
8 | ≤ 0.125 µg/mL | ≤ 0.125 µg/mL | ≤ 0.125 µg/mL | 2 µg/mL (≈ 2.46 µM) | ≤ 0.125 µg/mL | ≤ 0.125 µg/mL | > 64 µg/mL | ≤ 0.125 µg/mL | 16 µg/mL (≈ 19.7 µM) | 16 µg/mL (≈ 19.7 µM) | 4 µg/mL (≈ 4.93 µM) | 1 µg/mL (≈ 1.23 µM) |  |  | 4 µg/mL (≈ 4.93 µM) | 8 µg/mL (≈ 9.85 µM) | 1 µg/mL (≈ 1.23 µM) | 64 µg/mL (≈ 78.8 µM) | 16 µg/mL (≈ 19.7 µM) | 32 µg/mL (≈ 39.4 µM) | CC[C@H]1OC(=O)[C@H](C)C(=O)[C@H](C)[C@@H](O[C@@H]2O[C@H](C)C[C@H](N(C)C)[C@H]2O)[C@](C)(OC)C[C@@H](C)C(=O)[C@H](C)[C@H]2N(CCCCn3cnc(-c4cccnc4)c3)C(=O)O[C@]12C [Telithromycin, reference compound] | MIC ([1]; S. pneumoniae ErmB 303, Table 2): <=0.125 mcg/mL; MIC ([2]; S. pneumoniae 163 (Mef A), Table 2): <=0.125 mcg/mL; MIC ([3]; Table 2): <=0.125 mcg/mL
